Test results reported in patent US8802411B2, “ADP detection based luminescent phosphotransferase or ATP hydrolase assay” (Promega Corporation, priority 2008, dated 2014).

Experiments:
adenylate cyclase (AC) = assay: Adenylate cyclase assay and inhibition; type: biochemical; settings: for use as inhibitors of adenylate cyclase: calmodulin antagonists, when converting ADP to ATP, FIG. 5
Protocol: Activity of various adenylyl cyclases (ACs) was measured at 30° C. for 30 minutes in the presence of 60 mM Tris pH 7.5, 10 mM MgCl2, 40 nM calmodulin and variable ATP concentrations. Except for those experiments related to AC titration, 100 ng of the AC was used. When used, the calmodulin antagonists were prepared according to the manufacturer's recommendation and were added directly to the AC reaction when direct inhibition was assessed or to the reaction converting ADP to ATP to assess AC inhibition during ATP formation.

pyruvate kinase = target: T1, pyruvate kinase (Oryctolagus cuniculus, UniProt P11974); assay: ADP to ATP conversion by pyruvate kinase (ADP detection assay); type: biochemical, rabbit
T1 construct: Pyruvate kinase from rabbit muscle (Sigma Catalog number P9136); purchased Sigma P9136; host or cells: rabbit muscle
T1 sequence (P11974 whole entry): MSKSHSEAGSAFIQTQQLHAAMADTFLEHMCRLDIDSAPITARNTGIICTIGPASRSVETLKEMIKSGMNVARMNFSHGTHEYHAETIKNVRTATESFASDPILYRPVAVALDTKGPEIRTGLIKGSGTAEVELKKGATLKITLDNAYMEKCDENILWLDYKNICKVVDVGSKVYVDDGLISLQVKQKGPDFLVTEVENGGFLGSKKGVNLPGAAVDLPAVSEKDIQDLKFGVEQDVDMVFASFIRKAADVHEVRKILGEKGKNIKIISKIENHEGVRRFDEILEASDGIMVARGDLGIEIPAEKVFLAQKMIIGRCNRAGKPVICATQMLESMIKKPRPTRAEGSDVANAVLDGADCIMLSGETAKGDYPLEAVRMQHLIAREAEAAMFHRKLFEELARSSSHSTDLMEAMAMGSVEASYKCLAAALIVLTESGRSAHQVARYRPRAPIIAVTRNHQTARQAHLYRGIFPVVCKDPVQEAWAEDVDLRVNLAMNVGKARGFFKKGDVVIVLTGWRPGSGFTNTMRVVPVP
Protocol: Pyruvate kinase from rabbit muscle (Sigma Catalog number P9136), myokinase from chicken muscle (Sigma Catalog number M5520), myokinase from rabbit muscle (Sigma Catalog number M3003), creatine phosphokinase from bovine heart (Sigma Catalog number C7886), creatine phosphokinase from rabbit brain (Sigma Catalog number C6638), and creatine phosphokinase from rabbit muscle (Sigma Catalog number C3755) were obtained from Sigma.
80 μL of Reagent 2 (800 μM phosphoenolpyruvate and 800 mU pyruvate kinase in 80 μL Kinase-Glo® Max (Promega Corp.)) were added simultaneously to the kinase or ATPase reaction and incubated for 30-60 minutes at room temperature. The data were collected using a plate reading luminometer (GloMax® 96 Microplate Luminometer).
When the assay was performed in 3 steps, the following modification was introduced. After the ATP depletion step, 20 μL of pyruvate kinase (PK) reagent (40 mM Tris pH 7.0, 335 mM KCl, 500 μM calmidazolium, 500 μM phosphoenolpyruvate, 15 mM EDTA, 0.3 mg/mL BSA and 300-600 mU pyruvate kinase) was added, the reaction incubated for 5-10 minutes, and 100 μL Kinase-Glo® Max (Promega Corp.) was added to detect the ATP produced. After a 10 minute incubation, the plate was read on a plate reading luminometer (GloMax 96 Microplate Luminometer; Promega Corp.).

| Structure (SMILES) | inhibition of AC (adenylate cyclase (AC); FIG. 6) | use as inhibitors of adenylate cyclase (adenylate cyclase (AC)) | interference with pyruvate kinase conversion of ADP to ATP (pyruvate kinase; even at high calmidozolium concentrations, FIG. 6) | interference with the pyruvate kinase reaction (pyruvate kinase; inhibitor used to stop or tested in PKA kinase reaction, FIG. 13) |
| --- | --- | --- | --- | --- |
| Clc1ccc(C(c2ccc(Cl)cc2)n2cc[n+](CC(OCc3ccc(Cl)cc3Cl)c3ccc(Cl)cc3Cl)c2)cc1 (centres unmarked) [calmidazolium] | inhibited | may be used as inhibitors of adenylate cyclase | without any significant interference | – |
| CN[C@@H]1C[C@H]2O[C@@](C)([C@@H]1OC)n1c3ccccc3c3c4c(c5c6ccccc6n2c5c31)C(=O)NC4 [staurosporine] | – | – | – | did not interfere significantly |
| CN1CCN(CCCN2c3ccccc3Sc3ccc(C(F)(F)F)cc32)CC1 [trifluoroperazine] | – | may be used as inhibitors of adenylate cyclase | – | – |
